Test results taken from PMC5936838, “Structural implications of hERG K^+ channel block by a high-affinity minimally structured blocker” (The Journal of Biological Chemistry, 2018).
Where “and” joins values, the source holds several entries; their conditions need not be identical. Equal values may be shown once. Entries after “also recorded” stand apart in the source; their conditions may differ.

Columns and labels:
WT hERG [1] = target: T1, WT hERG (Homo sapiens, UniProt Q12809); assay: Whole-cell patch-clamp recording of IhERG, WT hERG in HEK293 cells at 37 °C; assay type: cell-based
T1 construct: expressed in transfected cells
From the text: (§1) A HEK293 cell line stably expressing WT hERG channels was kindly donated by Prof. Craig January ([51]). The pore helix (T623A and S624A) and S6 helix (F656A) alanine mutants, attenuated-inactivation mutants (N588K and S620T), and S5 mutant F557L were all generated and used as described previously ([3], [18], [41], [52]). The HEK293 cell line stably expressing the hERG S6 helix mutant Y652A was used in this study as described previously ([52]).
(§2) HEK293 cells stably or transiently expressing hERG constructs were maintained as described previously ([18], [19], [52]). Cells were plated in 40-mm Petri dishes at least 48 h before transfection and incubated at 37 °C with 5% CO2. Cells were transfected either with Lipofectamine^TM 2000 (Invitrogen) or Lipofectamine LTX (Invitrogen) following the manufacturer's instructions. The amount of hERG construct DNA that was transfected varied between 0.1 and 1.0 μg depending on the level of functional expression. 0.15 μg of CD8 was cotransfected as a transfection marker, and successfully transfected cells were identified using Dynabeads® (Invitrogen). Cells were plated on sterilized glass shards in 40-mm Petri dishes and incubated at 37 °C (5% CO2) at least 24 h before electrophysiological recording; this was to allow time for cell recovery and hERG construct expression.
For IhERG recordings, glass shards containing plated cells were placed in a recording chamber mounted on an inverted microscope (Nikon Diaphot). The cells were superfused continuously with Tyrode's solution containing 140 mM NaCl, 4 mM KCl, 2.5 mM CaCl2, 1 mM MgCl2, 10 mM glucose, 5 mM HEPES (titrated to pH 7.4 with NaOH). As described previously ([18], [19]), a modified “high-K^+” version of this solution (containing 94 mM KCl and 50 mM NaCl) was used to obtain recordable currents from comparatively poorly expressed hERG mutants (T623A and F656A). Patch pipettes (Schott number 8250 glass, A-M Systems Inc.) were pulled (Narishige, PP 830) and polished (Narishige, MF 83) to final resistance values between 2 and 4 megaohms. The patch pipettes were filled with intracellular solutio, containing 130 mM KCl, 1 mM MgCl2, 5 mM EGTA, 5 mM MgATP, and 10 mM HEPES (titrated to pH 7.2 with KOH). Pipette resistance compensation was between 70 and 80%. Cavalli-2 ([30]), which was synthesized by Ascent Scientific (Abcam Ltd.), was dissolved in DMSO to produce 100 μM, 1 mM, and 10 mM stock solutions. Stock solutions were diluted either in standard or high-K^+ Tyrode's solution as appropriate to obtain final concentrations stated under “Results.” Solutions were preheated to 37 ± 1 °C and applied to single cells using a homemade, multibarreled superfusion system, enabling rapid superfusate exchange (<1 s) ([53]). Thus, measurements of IhERG were made at 37 ± 1 °C as described previously ([18], [19], [52], [54], [55]).
All IhERG recordings were made using an Axopatch 200B amplifier (Axon Instruments, now Molecular Devices) and a CV203BU head stage. Data were acquired using a Digidata 1320 interface (Axon Instruments, now Molecular Devices). Data digitization rates were between 10 and 25 kHz during all voltage protocols, and an appropriate bandwidth between 2 and 10 kHz was set on the amplifier. For WT hERG and most of the mutant channels studied, activating voltage commands to +20 mV were used with tail currents observed at either […] (for most mutants) or −120 mV (for T623A and F656A) ([18][–][20], [33]). The level of block of WT and mutant IhERG by Cavalli-2 was attained by repetitive protocol application for 5 min, and fractional inhibition of IhERG tails was measured. […]

F656A hERG = target: T2, F656A hERG (Homo sapiens, UniProt Q12809, F656A); assay: Whole-cell patch-clamp recording of IhERG, S6 helix mutant F656A; assay type: cell-based
T2 construct: expressed in transfected cells; host or cells: HEK293
From the text: as §1, §2
(§3) For IhERG recordings, glass shards containing plated cells were placed in a recording chamber mounted on an inverted microscope (Nikon Diaphot). The cells were superfused continuously with Tyrode's solution containing 140 mM NaCl, 4 mM KCl, 2.5 mM CaCl2, 1 mM MgCl2, 10 mM glucose, 5 mM HEPES (titrated to pH 7.4 with NaOH). As described previously ([18], [19]), a modified “high-K^+” version of this solution (containing 94 mM KCl and 50 mM NaCl) was used to obtain recordable currents from comparatively poorly expressed hERG mutants (T623A and F656A). Patch pipettes (Schott number 8250 glass, A-M Systems Inc.) were pulled (Narishige, PP 830) and polished (Narishige, MF 83) to final resistance values between 2 and 4 megaohms. […]

S624A hERG = target: T3, S624A hERG (Homo sapiens, UniProt Q12809, S624A); assay: Whole-cell patch-clamp recording of IhERG, pore helix mutant S624A; assay type: cell-based
T3 construct: expressed in transfected cells; host or cells: HEK293
From the text: as §1
as §2, with “construct expression. […]” for “construct expression.”

S620T hERG = target: T4, S620T hERG (Homo sapiens, UniProt Q12809, S620T); assay: Whole-cell patch-clamp recording of IhERG, attenuated-inactivation mutant S620T; assay type: cell-based
T4 construct: expressed in transfected cells; host or cells: HEK293
From the text: as §1
as §2, with “construct expression. […]” for “construct expression.”

T623A hERG = target: T5, T623A hERG (Homo sapiens, UniProt Q12809, T623A); assay: Whole-cell patch-clamp recording of IhERG, pore helix mutant T623A; assay type: cell-based
T5 construct: expressed in transfected cells; host or cells: HEK293
From the text: as §1
as §2, with “construct expression. […]” for “construct expression.”

WT hERG [2] = target: T1, WT hERG; assay: Whole-cell patch-clamp recording of IhERG, WT hERG in HEK293 cells at 37 °C; assay type: cell-based; remark: listed apart in the source
F557L hERG = target: T6, F557L hERG (Homo sapiens, UniProt Q12809, F557L); assay: Whole-cell patch-clamp recording of IhERG, S5 mutant F557L; assay type: cell-based
T6 construct: expressed in transfected cells; host or cells: HEK293
From the text: as §1, §2
The F557L hERG mutation was generated using the Quik Change® site-directed mutagenesis kit (Stratagene, La Jolla, CA). In brief, a pair of complementary oligonucleotide primers containing the mutation (forward primer sequence, 5′[…]-3′; reverse primer sequence, 5′[…]-3′; synthesized by Sigma-Genosys, Haverhill, UK) was used in a PCR (95 °C for 1 min, 60 °C for 1 min, and 68 °C for 16 min for 18 cycles) by using hERG in a modified pcDNA3.0 vector as a DNA template. A DpnI digest of the PCR mixture was then performed for 1 h at 37 °C. Competent DH5α Escherichia coli (Invitrogen) were transformed using standard procedures. The mutation was confirmed by sequencing of the entire ORF (Eurofins MWG Operon, Ebersberg, Germany). […]

Y652A hERG = target: T7, Y652A hERG (Homo sapiens, UniProt Q12809, Y652A); assay: Whole-cell patch-clamp recording of IhERG, S6 helix mutant Y652A; assay type: cell-based
T7 construct: expressed in transfected cells
From the text: as §1, §2, §3

N588K hERG = target: T8, N588K hERG (Homo sapiens, UniProt Q12809, N588K); assay: Whole-cell patch-clamp recording of IhERG, attenuated-inactivation mutant N588K; assay type: cell-based
T8 construct: expressed in transfected cells; host or cells: HEK293
From the text: as §1, §2, §3

hERG = system: hERG; set-up: method as in earlier work; conditions: HEK cells at room temperature; ref 30 (Cavalli et al.); cited from earlier work

T1 sequence (Q12809 whole entry): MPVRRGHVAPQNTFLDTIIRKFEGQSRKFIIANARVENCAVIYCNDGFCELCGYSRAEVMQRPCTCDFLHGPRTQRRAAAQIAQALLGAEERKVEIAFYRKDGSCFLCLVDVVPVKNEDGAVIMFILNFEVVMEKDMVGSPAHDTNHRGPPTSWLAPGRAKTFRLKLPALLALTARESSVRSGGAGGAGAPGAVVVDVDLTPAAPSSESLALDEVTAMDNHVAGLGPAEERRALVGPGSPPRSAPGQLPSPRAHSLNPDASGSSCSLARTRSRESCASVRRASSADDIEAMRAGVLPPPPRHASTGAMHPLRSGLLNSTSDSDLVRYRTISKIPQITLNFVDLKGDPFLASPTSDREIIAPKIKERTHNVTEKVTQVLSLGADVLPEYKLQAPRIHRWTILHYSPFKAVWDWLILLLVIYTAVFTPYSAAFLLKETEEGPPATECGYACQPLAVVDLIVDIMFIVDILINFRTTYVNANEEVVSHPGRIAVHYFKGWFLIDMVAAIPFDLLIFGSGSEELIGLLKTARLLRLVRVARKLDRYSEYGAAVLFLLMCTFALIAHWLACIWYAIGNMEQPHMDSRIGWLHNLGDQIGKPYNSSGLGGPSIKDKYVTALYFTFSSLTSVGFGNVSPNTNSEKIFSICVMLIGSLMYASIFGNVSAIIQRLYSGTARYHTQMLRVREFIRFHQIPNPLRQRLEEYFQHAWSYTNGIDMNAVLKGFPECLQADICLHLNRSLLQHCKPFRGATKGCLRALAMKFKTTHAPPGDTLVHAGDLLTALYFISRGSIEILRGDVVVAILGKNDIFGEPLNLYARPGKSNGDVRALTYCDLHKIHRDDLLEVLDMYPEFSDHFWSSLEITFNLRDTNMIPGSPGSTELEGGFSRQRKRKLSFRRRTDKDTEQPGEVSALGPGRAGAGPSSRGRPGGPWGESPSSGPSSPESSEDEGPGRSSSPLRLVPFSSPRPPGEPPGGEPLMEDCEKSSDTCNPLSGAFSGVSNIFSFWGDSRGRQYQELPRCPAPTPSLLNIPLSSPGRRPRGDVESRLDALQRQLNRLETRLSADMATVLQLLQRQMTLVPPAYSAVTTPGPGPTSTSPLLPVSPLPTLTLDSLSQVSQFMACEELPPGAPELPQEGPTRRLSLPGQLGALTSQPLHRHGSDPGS
T4 sequence (Q12809 whole entry S620T): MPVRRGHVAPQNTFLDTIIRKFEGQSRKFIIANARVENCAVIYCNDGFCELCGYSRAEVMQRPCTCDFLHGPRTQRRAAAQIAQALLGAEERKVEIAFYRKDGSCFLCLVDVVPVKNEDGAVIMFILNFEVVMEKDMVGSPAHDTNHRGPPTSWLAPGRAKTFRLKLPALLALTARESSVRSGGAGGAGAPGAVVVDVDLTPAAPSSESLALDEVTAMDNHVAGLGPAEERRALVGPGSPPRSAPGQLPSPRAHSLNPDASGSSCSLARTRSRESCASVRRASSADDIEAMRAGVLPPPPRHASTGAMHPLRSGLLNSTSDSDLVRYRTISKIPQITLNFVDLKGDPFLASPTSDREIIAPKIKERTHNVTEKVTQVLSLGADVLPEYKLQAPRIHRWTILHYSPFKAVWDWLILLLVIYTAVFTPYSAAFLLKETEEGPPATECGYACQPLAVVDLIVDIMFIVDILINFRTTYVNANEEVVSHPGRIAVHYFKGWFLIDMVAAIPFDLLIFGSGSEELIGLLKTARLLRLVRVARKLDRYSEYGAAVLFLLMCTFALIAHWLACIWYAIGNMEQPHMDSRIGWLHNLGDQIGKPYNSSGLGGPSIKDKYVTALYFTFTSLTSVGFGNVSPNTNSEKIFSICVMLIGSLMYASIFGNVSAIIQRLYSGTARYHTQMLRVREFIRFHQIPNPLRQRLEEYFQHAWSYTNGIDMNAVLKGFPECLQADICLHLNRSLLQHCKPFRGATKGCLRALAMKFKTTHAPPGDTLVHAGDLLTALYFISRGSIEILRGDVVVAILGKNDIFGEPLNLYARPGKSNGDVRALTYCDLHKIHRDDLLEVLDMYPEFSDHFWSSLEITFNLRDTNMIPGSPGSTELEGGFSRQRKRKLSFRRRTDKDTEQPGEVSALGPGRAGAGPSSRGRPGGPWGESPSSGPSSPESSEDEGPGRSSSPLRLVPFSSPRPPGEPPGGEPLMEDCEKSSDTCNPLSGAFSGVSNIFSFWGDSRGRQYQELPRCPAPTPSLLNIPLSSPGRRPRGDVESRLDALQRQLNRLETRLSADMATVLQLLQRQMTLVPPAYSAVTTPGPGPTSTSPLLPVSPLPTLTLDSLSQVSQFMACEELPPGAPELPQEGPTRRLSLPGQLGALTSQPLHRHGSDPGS
T5 sequence (Q12809 whole entry T623A): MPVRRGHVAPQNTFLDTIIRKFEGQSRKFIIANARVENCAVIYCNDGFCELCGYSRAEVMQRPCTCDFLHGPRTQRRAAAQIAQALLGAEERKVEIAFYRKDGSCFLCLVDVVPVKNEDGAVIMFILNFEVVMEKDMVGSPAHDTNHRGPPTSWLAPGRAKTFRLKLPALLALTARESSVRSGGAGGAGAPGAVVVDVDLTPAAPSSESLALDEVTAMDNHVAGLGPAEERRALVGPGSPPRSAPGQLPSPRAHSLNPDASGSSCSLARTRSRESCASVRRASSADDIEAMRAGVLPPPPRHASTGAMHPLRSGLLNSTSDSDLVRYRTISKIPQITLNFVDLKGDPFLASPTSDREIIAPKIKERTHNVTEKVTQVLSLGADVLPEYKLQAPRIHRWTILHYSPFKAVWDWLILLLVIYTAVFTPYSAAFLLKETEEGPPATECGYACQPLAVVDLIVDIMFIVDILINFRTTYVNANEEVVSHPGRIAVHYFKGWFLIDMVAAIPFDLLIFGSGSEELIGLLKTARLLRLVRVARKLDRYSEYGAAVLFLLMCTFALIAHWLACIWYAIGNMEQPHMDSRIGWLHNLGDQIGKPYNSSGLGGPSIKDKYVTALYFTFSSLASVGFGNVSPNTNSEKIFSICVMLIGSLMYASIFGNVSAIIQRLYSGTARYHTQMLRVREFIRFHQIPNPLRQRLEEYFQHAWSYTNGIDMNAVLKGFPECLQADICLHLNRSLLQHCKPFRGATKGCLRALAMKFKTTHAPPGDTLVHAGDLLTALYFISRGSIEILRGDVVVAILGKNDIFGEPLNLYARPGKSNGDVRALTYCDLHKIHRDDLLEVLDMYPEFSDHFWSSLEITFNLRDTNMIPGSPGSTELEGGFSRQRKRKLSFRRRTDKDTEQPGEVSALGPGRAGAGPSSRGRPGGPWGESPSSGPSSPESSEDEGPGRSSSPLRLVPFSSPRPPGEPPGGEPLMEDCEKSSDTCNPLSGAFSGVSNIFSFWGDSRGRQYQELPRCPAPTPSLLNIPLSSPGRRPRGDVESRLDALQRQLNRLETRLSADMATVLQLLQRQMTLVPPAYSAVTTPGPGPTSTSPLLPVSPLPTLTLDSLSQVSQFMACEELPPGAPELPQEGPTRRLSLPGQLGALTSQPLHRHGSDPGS
T8 sequence (Q12809 whole entry N588K): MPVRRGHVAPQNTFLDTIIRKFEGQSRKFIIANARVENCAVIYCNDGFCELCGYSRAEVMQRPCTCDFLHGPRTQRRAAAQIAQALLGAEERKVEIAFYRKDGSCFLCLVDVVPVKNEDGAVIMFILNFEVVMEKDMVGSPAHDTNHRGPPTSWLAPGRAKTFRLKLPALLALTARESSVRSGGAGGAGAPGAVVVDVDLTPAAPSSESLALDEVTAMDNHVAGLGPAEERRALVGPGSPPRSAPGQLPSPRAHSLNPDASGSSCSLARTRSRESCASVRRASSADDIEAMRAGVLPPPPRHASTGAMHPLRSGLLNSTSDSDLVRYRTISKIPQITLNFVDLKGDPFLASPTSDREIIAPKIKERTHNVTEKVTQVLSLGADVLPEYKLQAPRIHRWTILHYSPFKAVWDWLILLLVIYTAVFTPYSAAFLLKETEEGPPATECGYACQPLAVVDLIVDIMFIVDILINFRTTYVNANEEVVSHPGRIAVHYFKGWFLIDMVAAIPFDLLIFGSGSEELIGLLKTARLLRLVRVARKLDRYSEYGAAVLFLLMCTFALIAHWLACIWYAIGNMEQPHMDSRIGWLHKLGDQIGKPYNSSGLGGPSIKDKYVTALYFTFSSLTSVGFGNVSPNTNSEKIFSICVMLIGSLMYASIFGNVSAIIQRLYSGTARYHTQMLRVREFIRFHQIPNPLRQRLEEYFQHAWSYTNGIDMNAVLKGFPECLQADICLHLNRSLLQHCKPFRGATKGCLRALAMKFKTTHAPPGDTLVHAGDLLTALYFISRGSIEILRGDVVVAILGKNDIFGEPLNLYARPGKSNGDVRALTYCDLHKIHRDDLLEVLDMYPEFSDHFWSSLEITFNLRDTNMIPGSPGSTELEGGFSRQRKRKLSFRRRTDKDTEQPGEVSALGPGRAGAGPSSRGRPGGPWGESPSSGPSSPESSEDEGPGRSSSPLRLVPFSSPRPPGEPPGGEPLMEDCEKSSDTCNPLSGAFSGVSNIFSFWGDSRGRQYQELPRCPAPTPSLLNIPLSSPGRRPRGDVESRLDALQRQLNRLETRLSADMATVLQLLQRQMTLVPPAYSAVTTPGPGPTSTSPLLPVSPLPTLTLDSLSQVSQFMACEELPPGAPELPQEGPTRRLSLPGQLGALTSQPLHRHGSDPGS

c1ccc(CCCNCCC(c2ccccc2)c2ccccc2)cc1 [Cavalli-2]
k (slope) of IhERG activation in the presence of compound (WT hERG [1]; 30 nM): 5.0 ± 1.5 and 5.03 ± 1.50 and 4.8 ± 1.1
k of IhERG inactivation in the presence of compound (WT hERG [1]; 30 nM): 19.9 ± 1.1 and 20.1 ± 1.3
ΔV0.5 of activation (WT hERG [1]; 30 nM vs control): -4.68 mV
inactivation τ in the presence of compound (WT hERG [1]; 30 nM, +40 mV after 2-ms step to −120 mV, control 1.4 ± 0.2 ms): 1.6 ± 0.5 ms
voltage dependence of fractional inhibition of WT IhERG (WT hERG [1]; 30 nM, test depolarizations −30 to +60 mV): voltage-dependent over the tested range
fractional inhibition of IhERG during +40-mV phase vs 0-mV phases (WT hERG [1]; 30 nM, three-step protocol 0/+40/0 mV): significantly reduced
δ value (Woodhull analysis) (WT hERG [1]; KD at +60 mV vs 0 mV): 0.2
IC50 at 5 min (WT hERG [1]; human, HEK293 cells stably expressing WT hERG, pH 7.4, WT-2, inward IhERG tails, voltage step −120 mV, 94 mM K+): 17.5 nM
recovery at 30 nM (WT hERG [1]; human, HEK293 cells stably expressing WT hERG, pH 7.4, washout after 30 nM, five cells, read-out: recovery on washout, of control amplitude): 59.5 ± 4.1%
reduction of F656A IhERG (F656A hERG; 1 μM, −120 mV, high K+): ~40%
Potency reduction compared with its WT-control (fold WT IC50) (F656A hERG; F656A vs WT-2): 75 fold and 75.1 fold
IC50 at 5 min (F656A hERG; human, HEK293 cells expressing F656A hERG, pH 7.4, F656A, −120 mV, 94 mM K+): 1320 nM
Potency reduction compared with its WT-control (fold WT IC50) (S624A hERG; S624A vs WT-1): 7 fold and 7.4 fold
IC50 at 5 min (S624A hERG; human, HEK293 cells expressing S624A hERG, pH 7.4, S624A, −40 mV, 4 mM K+): 262 nM
Potency reduction compared with its WT-control (fold WT IC50) (S620T hERG; S620T vs WT-1): 54 fold and 53.8 fold
IC50 at 5 min (S620T hERG; human, HEK293 cells expressing S620T hERG, pH 7.4, S620T, −40 mV, 4 mM K+): 1920 nM
Potency reduction compared with its WT-control (fold WT IC50) (T623A hERG; T623A vs WT-2): 16 fold and 16.1 fold
IC50 at 5 min (T623A hERG; human, HEK293 cells expressing T623A hERG, pH 7.4, T623A, −120 mV, 94 mM K+): 281 nM
IhERG tail inhibition (WT hERG [2]; 30 nM, standard protocol, tails at −40 mV, 4 mM K+): 50.2 ± 2.0%
change in t½ of IhERG deactivation (WT hERG [2]; 30 nM, tails at −40 mV): No significant change
IC50 (WT hERG [2]; WT-1, IhERG tails, voltage step −40 mV, 4 mM K+, HEK293, 37 °C): 35.6 nM
inhibition at 5 min, 0.03 µM (WT hERG [2]; human, HEK293 cells stably expressing WT hERG, pH 7.4, 30 nM, AP voltage clamp, read-out: inhibition of peak IhERG during ventricular action potential waveform): 42.3 ± 6.7%
inhibition at 5 min, 30 nM (WT hERG [2]; human, HEK293 cells stably expressing WT hERG, pH 7.4, 30 nM, standard protocol, tails at −40 mV, 4 mM K+, read-out: IhERG tail inhibition): ~50%
IC50 at 5 min (WT hERG [2]; human, HEK293 cells stably expressing WT hERG, pH 7.4, WT-1, IhERG tails, voltage step −40 mV, 4 mM K+, HEK293, 37 °C): 36 nM
voltage dependence of F557L IhERG tail inhibition (F557L hERG; 300 nM, −20 to +40 mV): eliminated voltage dependence of inhibition; also recorded: no significant voltage dependence; also recorded: nearly abolished
Potency reduction compared with its WT-control (fold WT IC50) (F557L hERG; F557L vs WT-1): 10 fold and 9.5 fold
IC50 at 5 min (F557L hERG; human, HEK293 cells expressing F557L hERG, pH 7.4, F557L, −40 mV, 4 mM K+): 339 nM
voltage dependence of Y652A IhERG tail inhibition (Y652A hERG; 300 nM, −20 to +40 mV): eliminated voltage dependence of inhibition; also recorded: no significant voltage dependence
Potency reduction compared with its WT-control (fold WT IC50) (Y652A hERG; Y652A vs WT-1): 17 fold and 16.7 fold
IC50 at 5 min (Y652A hERG; human, HEK293 cells stably expressing Y652A hERG, pH 7.4, Y652A, −40 mV, 4 mM K+): 594 nM
Potency reduction compared with its WT-control (fold WT IC50) (N588K hERG; N588K vs WT-1): 15 fold and 15.3 fold
inhibition at 5 min, 0.3 µM (N588K hERG; human, HEK293 cells expressing N588K hERG, pH 7.4, 300 nM): < 50%
IC50 at 5 min (N588K hERG; human, HEK293 cells expressing N588K hERG, pH 7.4, N588K, −40 mV, 4 mM K+): 544 nM
IC50 (hERG): 17 nM
